How the values were obtained:
[1] = Stability in human liver mitochondria assessed as compound remaining in presence of MAO-A and MAO-B measured after 60 mins; assay type: ADME; settings: read-out: Stability
[2] = Stability in rat brain homogenate assessed as half life; assay type: ADME, tissue-based
[3] = Stability in rat brain homogenate assessed as compound remaining measured after 120 mins; assay type: ADME, tissue-based; settings: read-out: Stability

Compound | remaining at 1 h [1] | half-life [2] | remaining at 2 h [3]
COc1ccc2[nH]cc(CCN3CCC3)c2c1 | 106% | > 4.82 h | 98%
CN(C)CCc1c[nH]c2cccc(O)c12 [PSILOCIN] | 112% | 1.91 h | 46.1%
COc1ccc2[nH]cc(CCN(C)C)c2c1 [MEBUFOTENIN] | 47.1% | 0.24 h | 0.3%
Oc1cccc2[nH]cc(CCN3CCC3)c12 | 88.2% | 2.91 h | 56.8%
CN(C)CCc1c[nH]c2ccccc12 | 8.9% | 0.085 h | 0%
c1ccc2c(CCN3CCC3)c[nH]c2c1 | 85.2% | > 4.82 h | 91.9%

Source: ChEMBL document CHEMBL5036377, “Improved Metabolically Stable 5-HT Receptor Modulators and the Development of New Antidepressants” (ACS Med Chem Lett, 2022)
